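Dose response: 5 concentrations. Exposure: 48 h. Format: 96-well plates. Endpoint: linear interpolation; highest concentration if not reached. GI50 = concentration required for 50% inhibition of growth. Definition used: TGI = concentration required for complete inhibition of growth.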
Experiments:
Assay in all cases: NCI anticancer screen, dose series, 48 h
[1] = test system: CCRF-CEM leukemia
[2] = test system: T-47D breast
[3] = test system: MOLT-4 leukemia
[4] = test system: MDA-MB-231 breast
[5] = test system: HOP-92 NSCLC
[6] = test system: TK-10 renal
[7] = test system: A549 NSCLC
[8] = test system: NCI/ADR-RES ovarian
[9] = test system: MCF7 breast
[10] = test system: OVCAR-5 ovarian
[11] = test system: MDA-MB-435
[12] = test system: OVCAR-4 ovarian
[13] = test system: CAKI-1 renal
[14] = test system: COLO 205 colon
[15] = test system: LOX IMVI melanoma
[16] = test system: RXF 393 renal
[17] = test system: SN12C renal
[18] = test system: SNB-19 CNS
[19] = test system: SK-MEL-2 melanoma
[20] = test system: M14 melanoma
[21] = test system: SR leukemia
[22] = test system: HS 578T breast
[23] = test system: SF-295 CNS
[24] = test system: ACHN renal
[25] = test system: SNB-75 CNS
[26] = test system: 786-0 renal
[27] = test system: HCC-2998 colon
[28] = test system: BT-549 breast
[29] = test system: SF-539 CNS
[30] = test system: NCI-H226 lung
[31] = test system: A498 renal
[32] = test system: HCT-15 colon
[33] = test system: PC-3 prostate
[34] = test system: RPMI-8226 leukemia
[35] = test system: SK-MEL-28 melanoma
[36] = test system: NCI-H23 lung
[37] = test system: K-562 leukemia
[38] = test system: UACC-62 melanoma
[39] = test system: OVCAR-8 ovarian
[40] = test system: SW-620 colon
[41] = test system: HL-60(TB) leukemia
[42] = test system: MALME-3M melanoma
[43] = test system: EKVX NSCLC
[44] = test system: DU-145 prostate
[45] = test system: HCT-116 colon
[46] = test system: SK-MEL-5 melanoma
[47] = test system: OVCAR-3 ovarian
[48] = test system: KM12 colon
[49] = test system: SK-OV-3 ovarian
[50] = test system: UO-31 renal
[51] = test system: HT29 colon
[52] = test system: SF-268 CNS
[53] = test system: NCI-H522 lung
[54] = test system: IGROV1 ovarian
[55] = test system: HOP-62 NSCLC
[56] = test system: UACC-257 melanoma
[57] = test system: U251 CNS
[58] = test system: NCI-H460 lung

C=CCCCCOc1ccccc1-c1cnc(OCCCCC=C)n1C
GI50 [1]: 4.27 µM | TGI [1]: 20.4 µM | GI50 [2]: 3.53 µM | TGI [2]: 29.5 µM | GI50 [3]: 4.54 µM | TGI [3]: 18.7 µM | GI50 [4]: 5.19 µM | TGI [4]: 20.3 µM | GI50 [5]: 1.81 µM | TGI [5]: 19.7 µM | GI50 [6]: 3.5 µM | TGI [6]: 23 µM | GI50 [7]: 3.92 µM | TGI [7]: 21.9 µM | GI50 [8]: 2.29 µM | TGI [8]: 5.96 µM | GI50 [9]: 2.89 µM | TGI [9]: 11.6 µM | GI50 [10]: 5.22 µM | TGI [10]: 23.1 µM | GI50 [11]: 2.08 µM | TGI [11]: 5.22 µM | GI50 [12]: 10.3 µM | TGI [12]: 50.7 µM | GI50 [13]: 4.36 µM | TGI [13]: 23.8 µM | GI50 [14]: 3.23 µM | TGI [14]: 11.1 µM | GI50 [15]: 4.89 µM | TGI [15]: 17 µM | GI50 [16]: 5.23 µM | TGI [16]: 18.2 µM | GI50 [17]: 5.51 µM | TGI [17]: 23.9 µM | GI50 [18]: 7.39 µM | TGI [18]: 38.1 µM | GI50 [19]: 2.56 µM | TGI [19]: 5.88 µM | GI50 [20]: 2.88 µM | TGI [20]: 14.6 µM | GI50 [21]: 4.3 µM | TGI [21]: 13.7 µM | GI50 [22]: 4.13 µM | TGI [22]: 23.7 µM | GI50 [23]: 4.03 µM | TGI [23]: 20.1 µM | GI50 [24]: 6.8 µM | TGI [24]: 38.9 µM | GI50 [25]: 2.52 µM | TGI [25]: 11.6 µM | GI50 [26]: 5.29 µM | TGI [26]: 21.3 µM | GI50 [27]: 6.57 µM | TGI [27]: 21.3 µM | GI50 [28]: 4.15 µM | TGI [28]: 18.7 µM | GI50 [29]: 5.82 µM | TGI [29]: 19.7 µM | GI50 [30]: 13 µM | TGI [30]: 28.5 µM | GI50 [31]: 2.1 µM | TGI [31]: 10.2 µM | GI50 [32]: 4 µM | TGI [32]: 16.3 µM | GI50 [33]: 5.38 µM | TGI [33]: 28.9 µM | GI50 [34]: 3.22 µM | TGI [34]: 14.1 µM | GI50 [35]: 4.51 µM | TGI [35]: 31.6 µM | GI50 [36]: 5.04 µM | TGI [36]: 26.8 µM | GI50 [37]: 3.74 µM | TGI [37]: 14.1 µM | GI50 [38]: 3.93 µM | TGI [38]: 17.4 µM | GI50 [39]: 4.23 µM | TGI [39]: 17.2 µM | GI50 [40]: 2.97 µM | TGI [40]: 11 µM | GI50 [41]: 2.17 µM | TGI [41]: 7.14 µM | GI50 [42]: 3.63 µM | TGI [42]: 16.4 µM | GI50 [43]: 11 µM | TGI [43]: 44.1 µM | GI50 [44]: 5.68 µM | TGI [44]: 22.3 µM | GI50 [45]: 2.66 µM | TGI [45]: 11.8 µM | GI50 [46]: 3.69 µM | TGI [46]: 13.7 µM | GI50 [47]: 3.21 µM | TGI [47]: 10.1 µM | GI50 [48]: 3.3 µM | TGI [48]: 13.1 µM | GI50 [49]: 3.96 µM | TGI [49]: 19.7 µM | GI50 [50]: 3.09 µM | TGI [50]: 20.7 µM | GI50 [51]: 3.22 µM | TGI [51]: 10.2 µM | GI50 [52]: 4.21 µM | TGI [52]: 21.3 µM | GI50 [53]: 2.59 µM | TGI [53]: 6.72 µM | GI50 [54]: 4.64 µM | TGI [54]: 20.1 µM | GI50 [55]: 5.13 µM | TGI [55]: 20.6 µM | GI50 [56]: 2.14 µM | TGI [56]: 12.9 µM

CN1C2CCC1CC(=CCOC(c1ccc(F)cc1)c1ccc(F)cc1)C2
TGI [1]: > 100 µM | TGI [2]: 35.1 µM | TGI [3]: 42.3 µM | TGI [4]: 37.1 µM | TGI [6]: 28.5 µM | TGI [7]: 32.4 µM | TGI [57]: 33.2 µM | TGI [8]: 40.1 µM | TGI [9]: 34.6 µM | TGI [10]: 36 µM | TGI [11]: 25.7 µM | TGI [12]: 31.9 µM | TGI [13]: 30.6 µM | TGI [14]: 30.5 µM | TGI [15]: 31.5 µM | TGI [16]: 28.2 µM | TGI [17]: 33.5 µM | TGI [18]: 37.8 µM | TGI [19]: 39.4 µM | TGI [20]: 31.9 µM | TGI [21]: 37.3 µM | TGI [22]: 27.5 µM | TGI [23]: 30.9 µM | TGI [24]: 31.8 µM | TGI [25]: 27.1 µM | TGI [26]: 27.9 µM | TGI [27]: 13.3 µM | TGI [28]: 30.1 µM | TGI [29]: 31.9 µM | TGI [30]: 37.4 µM | TGI [31]: 28.7 µM | TGI [32]: 29.6 µM | TGI [33]: 33.1 µM | TGI [34]: 38 µM | TGI [35]: 47.9 µM | TGI [36]: 32 µM | TGI [58]: 35.3 µM | TGI [37]: 28 µM | TGI [38]: 29.5 µM | TGI [39]: 32 µM | TGI [40]: > 100 µM | TGI [41]: 43.5 µM | TGI [42]: 27.2 µM | TGI [43]: 40.8 µM | TGI [44]: 30.5 µM | TGI [45]: 24.6 µM | TGI [46]: 23.2 µM | TGI [47]: 31.3 µM | TGI [48]: 29.6 µM | TGI [49]: 31.3 µM | TGI [50]: 21.8 µM | TGI [51]: 19.9 µM | TGI [52]: 27 µM | TGI [53]: 24.7 µM | TGI [54]: 30.1 µM | TGI [55]: 32.2 µM | TGI [56]: 31.7 µM

From PubChem BioAssay (NCI)
